Bridge positions count the residues as written; N and C are the ends. Ends that are not written are not given here. I, II: the chains in the order shown. Some results are limits rather than exact numbers.

Data set [1] relates to AZT-resistant mutant of HIV-1. Briefly: Inhibition of infection by AZT-resistant HIV-1 mutant. The class given is cell-based. The following applies: FIG. 6. How it is done: (§1) For virus inhibition assays, H9, MT-2 and U937 cells were used as target cells. Five HIV-1 isolates (IIIB, MN, RF, SF2, and an AZT-resistant mutant) were cultivated in MT-2 cells, collected, and aliquoted.
(§2) HIV-1 infectivity was determined by two distinct methods; an ELISA measuring HIV-1 core protein p24 production and a colorimetric assay for HIV-mediated cytopathogenesis. Briefly, 1×10^4 MT-2 cells in 96 well plates were infected with dilutions of HIV-1IIIB in 200 μl RPMI 1640 medium with 10% FBS. After 24 hrs., half of the culture medium was changed. On the fourth day after incubation at 37° C., 100 μl of culture supernatant was collected from each well and an equal volume of fresh medium was added to the wells. The collected supernatants were mixed with equal volumes of 5% Triton X-100 and assayed for p24 using a kit from Coulter Immunology (Hialeah, FL). On the sixth day post infection, an indicator XTT tetrazolium dye (1 mg/ml; 50μl/well; PolySciences, Inc., Warrington, Pa.) was added to the cells. After a 4 hr. period, intracellular formazan was determined calorimetrically at 450 nm. The percentage of cytopathogenesis was calculated using the following formula: [(OD450 in negative control-OD450 in experiment)/(OD450 in negative control-OD450 in positive control)] ×100.

For data set [2], the system named is HIV-1IIIB. Briefly: Inhibition of HIV-1IIIB replication in MT-2 cells (p24 ELISA). The class given is cell-based. How it is done: as §1, §2
Twenty-nine peptides from HIV-1IIIB gp160 (gp120/gp41) and 21 peptides from V3 hypervariable loops of distinct HIV-1 isolates were screened for their inhibitory activity on HIV-1 replication and HIV-1-mediated cytopathogenesis in MT-2 cells.
Background: An ELISA detects its analyte on a solid surface through an enzyme-linked reagent.

Data set [3] deals with HIV-1IIIB. Kind of data set: Inhibition of HIV-1IIIB replication in U937 cells (p24 production). The class given is cell-based. The following applies: monocytic cell line U937, FIG. 4. How it is done: as §1, §2
For another data set, the system named is HIV-1. The following applies: FIG. 7. On the procedure:
Rabbit antiserum directed against this peptide was prepared. […] The mixture was tested for antiviral activity.

The subject of a further data set is MT-2 cells. Kind of data set: Cytotoxicity of peptides for MT-2 cells. Conditions: for cytotoxicity: MT-2 cells. On the procedure: Subsequently, cytotoxicity studies were performed using MT-2 cells at a final concentration of 12.5 μg/ml.
Data set [4] has as its system HIV-1IIIB infected H9 cells. Briefly: Inhibition of fusion of HIV-1IIIB infected H9 cells with uninfected H9 cells (syncytium count). The class given is cell-based. How it is done:
The inhibitory effect of the peptide of the present invention on the fusion of HIV-1 infected cells with uninfected cells was also determined. In brief, 1.25×10^4 HIV-1IIIB infected H9 cells were mixed with the peptide and an equal number of uninfected H9 cells.

Another data set has as its system HIV-1 isolate MN. Briefly: Inhibition of infection by HIV-1 isolate MN. The class given is cell-based. The following applies: FIG. 6. How it is done: as §1, §2
Data set [5] relates to HIV-1IIIB. Briefly: Inhibition of HIV-1IIIB-mediated cytopathogenesis in MT-2 cells (XTT colorimetric assay). The class given is cell-based. On the procedure:
as §1, §2
Additionally, studies were performed to determine whether or not any of the peptides could inhibit the cytopathogenesis mediated by HIV-1.

The subject of the next data set is HIV-1 isolate SF2. Briefly: Inhibition of infection by HIV-1 isolate SF2. Conditions: FIG. 6. The class given is cell-based. On the procedure: as §1, §2
The next data set has as its system HIV-1 isolate RF. Briefly: Inhibition of infection by HIV-1 isolate RF. The class given is cell-based. The following applies: FIG. 6. How it is done:
as §1, §2

Consider “I: EWDREINNYTSLIHSLIEESQNQQEKNEQEGGC / II: EWDREINNYTSLIHSLIEESQNQQEKNEQEGGC (disulfide I:33-II:33) [peptide (637-666)]”, for which the “inhibition of infection (replication and cytopathogenesis)” value is given as “effectively inhibited infections” in [1]; “effectively inhibited infections” with HIV-1IIIB [2] (HIV-1 isolate IIIB, FIG. 6); “effectively inhibited infections” with HIV-1 isolate MN; “effectively inhibited infections” in the data set on HIV-1 isolate SF2; “effectively inhibited infections” in the data set with HIV-1 isolate RF. Also, in the data set on HIV-1IIIB [2] (MT-2 cells, FIG. 5), the “ED50 for inhibition of HIV-1IIIB replication (decrease of gag protein p24 production)” value was 0.101 µM. In the data set with HIV-1IIIB [2] (comparative assay, FIG. 8), the “inhibition of HIV-1 replication, dimer compared with monomer” value is reported as “much more effective”. Besides, in the data set with HIV-1IIIB [2] (final concentration 12.5 μg/ml, MT-2 cells, HIV-1IIIB, FIG. 1), the “inhibition of HIV-1 replication (decrease of gag protein p24 synthesis)” value was “significantly inhibited HIV-1 replication”. The “inhibition of p24 production” value in the data set with HIV-1IIIB [3] was “significantly inhibited p24 production”; in the data set on HIV-1 (peptide 1 μg/ml, in the absence of antiserum), “significantly inhibited p24 production”. The “inhibitory activity on p24 production after incubation with antiserum” value with HIV-1 (peptide 1 μg/ml incubated with rabbit anti-(637-666) antiserum, 37° C., 30 minutes) is given as “significantly blocked”. Moreover, the cytotoxicity entry with MT-2 cells (concentration increased to 11.145 μM) is reported as “significant cytotoxicity remained undetectable”; with MT-2 cells (final concentration 12.5 μg/ml, FIG. 3), “did not exhibit any cytotoxicity”. Besides, in the data set on MT-2 cells (colorimetric assay), the “50% cytotoxic dose (CD50)” value is on record as > 11,145 nM. Further, the “ED50 for inhibition of cell fusion” value in data set [4] (HIV-1IIIB infected H9 cells, FIG. 5) was 0.16 µM. In data set [4] (comparative assay, FIG. 8), the “inhibition of cell fusion, dimer compared with monomer” value is “much more effective”. The “ED50 for inhibition of cytopathogenesis mediated by HIV-1IIIB” value in the data set with HIV-1IIIB [5] (MT-2 cells, FIG. 5) is 0.142 µM. Further, in the data set with HIV-1IIIB [5] (MT-2 cells, HIV-1IIIB, FIG. 2), the “inhibition of cytopathogenesis mediated by HIV-1” value is “markedly inhibited cytopathogenesis”. Also, in the data set with HIV-1IIIB [5] (comparative assay, FIG. 8), the “inhibition of HIV-1-mediated cytopathogenesis, dimer compared with monomer” value is given as “much more effective”.
On to `Cc1cn([C@H]2C[C@H](N=[N+]=[N-])[C@@H](CO)O2)c(=O)[nH]c1=O` [AZT, 3'azido-3'deoxythymidine, reference compound], for which, in data set [1], the “inhibition of infection (replication and cytopathogenesis)” value is “could not be effectively neutralized”.

(Values after patent US5840843A, “Synthetic polypeptides as inhibitors of HIV-1” (priority 1995, dated 1998).)
